From patent US20160213849A1, “CONDITIONAL REQUIRED PRIMING” (SANOFI-AVENTIS DEUTSCHLAND GMBH, priority 2013, published 2016)
Where “and” joins values, the source holds several entries; their conditions need not be identical. Identical values can stand only once.

How the values were obtained:
Type in all cases: cell-based
Pseudomonas aeruginosa = assay: preservative efficacy test of inoculated m-cresol test solutions; design: unit not given beside the values; conditions: 1.8 mg/ml m-cresol
Procedure: (§1) In a first experiment, the minimum m-cresol concentration necessary to ensure microbiological integrity was determined.
(§2) Test solutions with m-cresol concentrations of between 2.7 mg/ml down to 1.5 mg/ml were inoculated with an inoculum of different bacteria and fungi/yeast and stored for 28 days. During the test, the bacteria and fungi/yeast population of the test solutions were repeatedly analyzed.

bacteria and fungi/yeast = assay: comparison of test solution results to Ph. Eur. and USP criteria
Procedure: The Ph. Eur. and USP criteria are given in table 1, wherein the numbers designate the required order of magnitude in CFU (colony forming unit) decrease as a function of time since the time of contamination (T0).
as §2
The analysis presented in table 2 for the 1.8 mg/ml m-cresol test solution was also performed for the test solutions with different m-cresol contents. The results were then compared to the Ph.Eur. and USP criteria to determine, which m-cresol contents are sufficient to fulfil these criteria.

Staphilococcus aureus = assay: preservative efficacy test of inoculated m-cresol test solutions; conditions: 1.8 mg/ml m-cresol
Procedure: as §1, §2

Aspergillus niger = assay: as above; conditions: 1.8 mg/ml m-cresol
Procedure: as §1, §2

Candida albicans = assay: as above; conditions: 1.8 mg/ml m-cresol
Procedure: as §1, §2

Escherichia coli = assay: as above; conditions: 1.8 mg/ml m-cresol
Procedure: as §1, §2

Cc1cccc(O)c1 [m-cresol] gave a Pseudomonas aeruginosa content (Pseudomonas aeruginosa; 6 h) of under 10, a Pseudomonas aeruginosa content (Pseudomonas aeruginosa; 24 h) of under 10 and a Pseudomonas aeruginosa content (Pseudomonas aeruginosa; 7 d) of under 10. The Pseudomonas aeruginosa content (Pseudomonas aeruginosa; 14 d) was under 10, the Pseudomonas aeruginosa content (Pseudomonas aeruginosa; 28 d) was under 10 and the Pseudomonas aeruginosa content (Pseudomonas aeruginosa; Start (T0)) was 23000. The “m-cresol content still enough to fulfil both the Ph.Eur. criterion A and the USP criteria” value (bacteria and fungi/yeast; conclusion of first experiment) was 2.1 mg/mL and 1.8 mg/mL, the “m-cresol content down to which the USP criteria are fulfilled” value (bacteria and fungi/yeast; lowest content tested 1.5 mg/ml) was 1.5 mg/mL and the Staphilococcus aureus content (Staphilococcus aureus; 6 h) was 2200. For the same compound, the Staphilococcus aureus content (Staphilococcus aureus; 24 h) was under 10, the Staphilococcus aureus content (Staphilococcus aureus; 7 d) was under 10 and the Staphilococcus aureus content (Staphilococcus aureus; 14 d) was under 10. It also gave a Staphilococcus aureus content (Staphilococcus aureus; 28 d) of under 10, a Staphilococcus aureus content (Staphilococcus aureus; Start (T0)) of 170000 and an Aspergillus niger content (Aspergillus niger; 7 d) of 15. For the same compound, the Aspergillus niger content (Aspergillus niger; 14 d) was under 10, the Aspergillus niger content (Aspergillus niger; 28 d) was under 10 and the Aspergillus niger content (Aspergillus niger; Start (T0)) was 250000. The Candida albicans content (Candida albicans; 7 d) was 100, the Candida albicans content (Candida albicans; 14 d) was 30 and the Candida albicans content (Candida albicans; 28 d) was under 10. The Candida albicans content (Candida albicans; Start (T0)) was 400000, the Escherichia coli content (Escherichia coli; 6 h) was 55 and the Escherichia coli content (Escherichia coli; 24 h) was under 10. It also gave an Escherichia coli content (Escherichia coli; 7 d) of under 10, an Escherichia coli content (Escherichia coli; 14 d) of under 10 and an Escherichia coli content (Escherichia coli; 28 d) of under 10. The Escherichia coli content (Escherichia coli; Start (T0)) was 190000.
